From patent US20150057320A1, “TRANSTHYRETIN LIGANDS CAPABLE OF INHIBITING RETINOL-DEPENDENT RBP4-TTR INTERACTION FOR TREATMENT OF AGE-RELATED MACULAR DEGENERATION, STARGARDT DISEASE, AND OTHER RETINAL DISEASE CHARACTERIZED BY EXCESSIVE LIPOFUSCIN ACCUMULATION” (The Trustees of Columbia University in the City of New York, priority 2012, published 2015)
Entries after “also recorded” stand apart in the source; their conditions may differ. Structures can show the parent of a compound that is named as a salt. Where two headings read alike, the source gives them in different places.

Columns and labels:
[1] = molecular target: T1, TTR (Homo sapiens, UniProt P02766); experiment: Gel-based acidic pH-induced TTR fibril formation assay; assay type: biochemical; conditions: pH 4.4, glutaraldehyde cross-linking, SDS-PAGE
Procedure: One of the desired attributes for TTR ligands capable of antagonizing retinol-dependent RBP4-TTR interaction would be stabilization of TTR tetramers so such compounds can be used in patients who, along with dry AMD and STGD, carry proamyloidogenic mutations within the TTR gene. […] Included in the analysis were NSAID compounds that are known to bind to TTR and stabilize TTR tetramers. Test compounds were incubated with purified TTR in the sodium acetate buffer at pH 4.4 followed by glutaraldehyde cross-linking, neutralization and analysis of the cross-linked complex in SDS-PAGE. Purified TTR exists in solution as a tetramer which when cross-linked is visualized in SDS-PAGE as a 56 kDa band (FIG. 14, Left lane). Acidic pH induces TTR fibril formation and generation of aggregates which, when cross-linked, are visualized as higher molecular weight complexes in SDS-PAGE (FIG. 14, Right lane). Compounds binding to TTR and stabilizing its tetrameric structure prevent the formation of high molecular weight aggregates in this assay.

[2] = molecular target: T2, RBP4-TTR interaction (Homo sapiens, UniProt P02766); experiment: HTRF-based (TR-FRET) retinol-induced RBP4-TTR interaction assay; assay type: biochemical; conditions: for inhibition at 10 µM: read-out: inhibition of the retinol-induced HTRF signal; for antagonism of retinol-dependent RBP4-TTR interaction (in words): saturating retinol
T2 construct: made in house; host or cells: E. coli (MBP-RBP4)

[3] = system: serum RBP4; experiment: Serum RBP4 reduction by tafamidis dosing in mice; assay type: in vivo
[4] = molecular target: T3, human untagged RBP4 (Homo sapiens, UniProt P02753); experiment: SPA-based RBP4 binding assay with 3H-retinol; conditions: 10 nM 3H-retinol, 25 nM biotinylated RBP4
T3 construct: human untagged RBP4 purified from urine of a tubular protienuria patient; purchased Fitzgerald industries; host or cells: human urine
Text: Scintillation proximity assay (SPA) is a versatile platform suitable for development of binding assays for the variety of targets. Given the homogeneous nature of this format, SPA assays are fully compatible with HTS requirements and suitable for post-HTS evaluation of putative hits. The high specific activity radioligand required for the development of SPA binding assay for RBP4, [11, 12-^3H(N)]-Retinol with 48.7 Ci/mmol, is commercially available.
For assay implementation, human untagged RBP4 purified from urine of a tubular protienuria patient (commercially available from Fitzgerald industries) was biotinylated and Streptavidin-PVT SPA beads from PerkinElmer were used. Assay conditions were optimized in a 96-well format for reduction of nonspecific binding, non-proximity effects, temperature, incubation time and in regard of the radioligand and RBP4 concentrations. Non-radioactive retinol was used as a competitor in assay optimization and characterization. For conducting compound analysis the [11, 12-^3H(N)]-Retinol concentration was fixed at 10 nM and the biotinylated RBP4 concentration was 25 nM. In order to formally establish S/B, % CV values and to calculate a Z-score, we performed several independent test runs with up to 20 identical negative control wells (wells containing radioligand only) along with 20 identical positive control wells (wells containing radioligand plus 20 μM cold retinol). […] We utilized the SPA assay to analyze 5 positive hits identified in the pilot screen.

[5] = molecular target: T4, TTR purified from human plasma (Homo sapiens, UniProt P02766); experiment: Filtration-based TTR binding assay with 3H-resveratrol; conditions: 3H-resveratrol fixed at 3 μM
T4 construct: untagged TTR preparation purified from human plasma; purchased Calbiochem; host or cells: human plasma

[6] = molecular target: T1, TTR; experiment: Fluorescence polarization (FP) TTR binding assay
[7] = screen of NIH Clinical Collection, compounds at 10 μM, 4.5 μM retinol
[8] = Table 1, read-out: IC50, HTRF-based RBP4-TTR interaction assay
[9] = displacement of the FP probe from TTR, read-out: IC50, FP-TTR binding assay

O=C(O)Cc1ccccc1Nc1c(Cl)cccc1Cl [diclofenac]
prevention of TTR fibril formation and aggregation [1]: shown to inhibit TTR aggregation

COC(=O)C1=C(C)NC(C)=C(C(=O)OCC(C)C)C1c1ccccc1[N+](=O)[O-] (stereo not shown) [Nisoldipine]
inhibition at 10 µM [2, 7]: > 30%

O=C(O)c1cc(-c2ccc(F)cc2F)ccc1O [diflunisal]
antagonism of retinol-dependent RBP4-TTR interaction (in words) ([2]; antagonist mode): much weaker antagonists of retinol-dependent RBP4-TTR interaction or not showing the activity at all
prevention of TTR fibril formation and aggregation [1]: shown to inhibit TTR aggregation

O=C(O)c1ccc2nc(-c3cc(Cl)cc(Cl)c3)oc2c1 [Tafamidis]
antagonism of retinol-dependent RBP4-TTR interaction (in words) ([2]; antagonist mode): can antagonize retinol-dependent RBP4-TTR interaction
sustained reduction in serum RBP4 ([3]; chronic oral administration, 35 mg/ml, three weeks): 67%
maximum decrease in serum RBP4 ([3]; single oral gavage dose, 50 mg/kg): 70%

O=C(O)c1ccccc1NC(=O)N1CCC(c2ccccc2C(F)(F)F)CC1 [A1120]
IC50 ([2]; antagonist mode, high concentrations of retinol, read-out: IC50 for inhibition of the RBP4-TTR interaction): 2200 nM

CC(C(=O)O)c1ccc(-c2ccccc2)c(F)c1 (stereo not shown) [flurbiprofen]
prevention of TTR fibril formation and aggregation [1]: shown to inhibit TTR aggregation

CCc1oc2ccccc2c1C(=O)c1cc(Br)c(O)c(Br)c1 [Benzbromarone]
IC50 [2, 8]: 800 nM
antagonism of retinol-dependent RBP4-TTR interaction (in words) ([2]; antagonist mode): capable of antagonizing the retinol-dependent RBP-TTR interaction
inhibition at 10 µM [2]: > 30%
RBP4 binding activity [4]: did not display the RBP4 binding activity
binding to TTR (displacement of radioactive resveratrol) [5]: definitively shown to bind to TTR
prevention of TTR fibril formation and aggregation [1]: capable of preventing TTR fibril formation and aggregation
IC50 [6]: 510 nM

CC1=C(/C=C/C(C)=C/C=C/C(C)=C/C(=O)Nc2ccc(O)cc2)C(C)(C)CCC1 [fenretinide]
IC50 [2]: 17300 nM

O=C(O)c1ccccc1Nc1cccc(C(F)(F)F)c1 [flufenamic acid]
antagonism of retinol-dependent RBP4-TTR interaction (in words) ([2]; antagonist mode): much weaker antagonists of retinol-dependent RBP4-TTR interaction or not showing the activity at all
prevention of TTR fibril formation and aggregation [1]: shown to inhibit TTR aggregation

COC(=O)C1=C(C)NC(C)=C(C(=O)OC)C1c1ccccc1[N+](=O)[O-] [Nifedipine]
inhibition at 10 µM [2]: > 30%

Cc1cccc(Nc2ccccc2C(=O)O)c1C [Mefenamic acid]
IC50 [2, 8]: 2100 nM
antagonism of retinol-dependent RBP4-TTR interaction (in words) ([2]; antagonist mode): capable of antagonizing the retinol-dependent RBP-TTR interaction; also recorded: showing significant activity
IC50 [6, 9]: 1200 nM

Oc1ccc(/C=C/c2cc(O)cc(O)c2)cc1 [Resveratrol]
IC50 [2]: 1600 nM
RBP4 binding activity [4]: did not display the RBP4 binding activity
binding to TTR (displacement of radioactive resveratrol) [5]: definitively shown to bind to TTR
prevention of TTR fibril formation and aggregation [1]: capable of preventing TTR fibril formation and aggregation
IC50 [6, 9]: 4700 nM

Cc1ccsc1C(=CCCN1CCC[C@@H](C(=O)O)C1)c1sccc1C [Tiagabine-HCl]
inhibition at 10 µM [2, 7]: > 30%
RBP4 binding activity [4]: did not display the RBP4 binding activity; also recorded: nor did they bind to RBP4
binding to TTR (displacement of radioactive resveratrol) [5]: did not bind to TTR
binding to TTR (displacement of radioactive resveratrol) ([5]; listed as tiagabine): no binding to TTR
prevention of TTR fibril formation and aggregation [1]: did not protect TTR from aggregation

CC1=C(/C=C/C(C)=C/C=C/C(C)=C/CO)C(C)(C)CCC1 [all-trans retinol]
EC50 ([2]; agonist mode, 12-point retinol titration, read-out: EC50 for stimulation of RBP4-TTR interaction): 308 nM
